Results from patent US20250034216A1, “STEREOSELECTIVE COVALENT LIGANDS FOR ONCOGENIC AND IMMUNOLOGICAL PROTEINS” (The Scripps Research Institute, priority 2021, published 2025).

biological target: T1, RTN4_C1101 (Homo sapiens, UniProt Q9NQC3); experiment: IA-DTB cysteine engagement; format: binding; conditions: 22Rv1 cells, 20 μM probe, 1 h, relative to DMSO
T1 construct: endogenous in cells; host or cells: 22Rv1
T1 sequence (Q9NQC3 1-1192): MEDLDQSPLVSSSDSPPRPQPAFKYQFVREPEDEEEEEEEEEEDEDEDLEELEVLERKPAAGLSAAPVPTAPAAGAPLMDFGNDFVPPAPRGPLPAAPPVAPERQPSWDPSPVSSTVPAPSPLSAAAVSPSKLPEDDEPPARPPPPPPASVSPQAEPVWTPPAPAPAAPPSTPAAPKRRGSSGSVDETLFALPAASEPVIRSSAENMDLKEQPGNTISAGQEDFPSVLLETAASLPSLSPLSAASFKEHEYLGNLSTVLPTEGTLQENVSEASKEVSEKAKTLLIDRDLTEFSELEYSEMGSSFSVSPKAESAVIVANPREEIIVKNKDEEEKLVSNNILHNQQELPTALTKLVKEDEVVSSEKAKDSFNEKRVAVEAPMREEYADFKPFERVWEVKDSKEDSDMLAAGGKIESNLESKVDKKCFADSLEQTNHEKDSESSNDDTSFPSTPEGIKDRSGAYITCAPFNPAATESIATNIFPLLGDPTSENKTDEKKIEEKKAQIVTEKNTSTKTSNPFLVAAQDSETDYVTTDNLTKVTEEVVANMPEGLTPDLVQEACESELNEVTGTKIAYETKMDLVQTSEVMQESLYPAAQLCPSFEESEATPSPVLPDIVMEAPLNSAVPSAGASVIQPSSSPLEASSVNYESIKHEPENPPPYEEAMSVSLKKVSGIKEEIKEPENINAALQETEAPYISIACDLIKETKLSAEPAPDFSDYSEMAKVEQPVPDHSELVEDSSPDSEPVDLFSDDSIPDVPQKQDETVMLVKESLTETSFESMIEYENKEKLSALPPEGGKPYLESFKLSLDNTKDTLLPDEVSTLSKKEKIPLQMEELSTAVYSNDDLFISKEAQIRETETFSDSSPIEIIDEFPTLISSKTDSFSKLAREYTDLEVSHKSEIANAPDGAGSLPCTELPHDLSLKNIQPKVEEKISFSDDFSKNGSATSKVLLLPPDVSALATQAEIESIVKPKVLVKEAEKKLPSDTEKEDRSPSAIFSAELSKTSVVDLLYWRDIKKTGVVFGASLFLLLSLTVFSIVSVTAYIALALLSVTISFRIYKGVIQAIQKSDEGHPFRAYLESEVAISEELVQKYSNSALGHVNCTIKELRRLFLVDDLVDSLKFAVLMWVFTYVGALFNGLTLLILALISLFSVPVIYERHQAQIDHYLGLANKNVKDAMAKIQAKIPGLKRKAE
Method in brief: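 Cells were treated in situ with electrophilic probes, then lysed, and the lysates (2 mg/mL protein) were labeled with IA-DTB for 1 h at ambient temperature. After reduction, alkylation and trypsin digestion, labeled peptides were streptavidin-enriched, TMT-labeled and fractionated. Engagement ratios are probe vs DMSO reporter intensities, averaged across replicates.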

% engagement RTN4_C1101 [%] | SMILES
85 | C=CC(=O)N1C[C@H](c2ccc(Br)cc2)[C@H]1C(=O)Nc1cccc2cccnc12 [MY-3B, (2S,3S)-1-acryloyl-3-(4-bromophenyl)-N-(quinolin-8-yl)azetidine-2-carboxamide]
87.5 | C=CC(=O)N1C[C@H](c2ccc(Br)cc2)[C@@H]1C(=O)Nc1cccc2cccnc12 [MY-1B, (2R,3S)-1-acryloyl-3-(4-bromophenyl)-N-(quinolin-8-yl)azetidine-2-carboxamide]
91.5 | C=CC(=O)N1C[C@H](c2ccc(Br)cc2)[C@H]1C(=O)Nc1cccc2cccnc12 [MY-3A, (2S,3S)-1-acryloyl-3-(4-bromophenyl)-N-(quinolin-8-yl)azetidine-2-carboxamide]
85 | C=CC(=O)N1C[C@@H](c2ccc(Br)cc2)[C@H]1C(=O)Nc1cccc2cccnc12 [MY-1A, (2S,3R)-1-acryloyl-3-(4-bromophenyl)-N-(quinolin-8-yl)azetidine-2-carboxamide]
